Source: patent US20060094676A1, “Compositions and methods for treating cancer using compositions comprising an inhibitor of endothelin receptor activity” (priority 2004, published 2006)

Key:
Assay type in all cases: cell-based, human
[1] = tested on: Me 190/DA (Cut-met) melanoma cells; test: MTS assay of cell viability after BQ788; details: incubation with BQ788 for seven days
Procedure: (§1) Cells were cultured on a matrigel matrix that was histologically examined after two weeks (A-F). While the primary melanoma cells remained on top of the gel only (A and B), a fraction of the Cut-met cells invaded the gel (C and D) and the LN-met cells invaded the matrix extensively (E and F). Cell lysates of the three lines were subjected to western blot analysis using an anti-ETRB Ab (G) and an anti-tubulin Ab (H). Untreated, control (vehicle treated), and BQ788 treated cells were subjected to MTS assay to quantify any reduction in cell number. The mean values were calculated and plotted (I) as the percentage of the vehicle treated value+/− SEM.
(§2) Human melanoma cell lines Me191-1/GG (Primary), Me 190/DA (Cut-met), Me 275/EP (LN-met) were obtained from the Ludwig Institute (Epalinges, Switzerland) and SK-MEL-28 was obtained from the American Tissue Culture Collection (ATCC). […] After removal of the inserts, MTS solution was added to the well to quantify the cells that migrated through the insert and were attached to the bottom of the well by measuring the OD at 492 nm (Promega). […]
(§3) To address the relationship between the level of progression of human melanoma and responsiveness to BQ788 treatment, 3 cell lines that had been grown in culture for a restricted number of passages were used. […] This effect was quantified using the MTS assay.

[2] = tested on: Me 275/EP (LN-met) melanoma cells; test: MTS assay of cell viability after BQ788; details: incubation with BQ788 for seven days; LN-met line
Procedure: as §1, §2, §3

LN-met = test: Apoptosis detection ELISA (histone-associated DNA fragments); details: BQ788 5 days
Procedure: (§4) Cells were plated in 24 wells plate in 500 μl medium and cultured for 5 days in the presence of BQ788 or solvent. A cell death detection ELISA PLUS kit (Roche) designed to reveal histone-180 bp DNA fragment complexes of nucleosomes was used to measure apoptosis. Briefly, cells floating in the supernatants and those attached to the dish were incubated in lysis buffer for 30 min. in room temperature (RT). After spinning for 10 min at 200 g, the DNA content of each sample was determined. 20 μl containing equal amounts of DNA were added to each well (3 wells per condition) coated with anti-histone antibody and incubated with additional 80 μl anti-DNA peroxidase immunogen under gentle shaking conditions for 2 h at RT. After washing and revelation with peroxidase substrate the samples OD were measured at 405 nm against substrate containing wells as blank.
(§5) Because BCL-2A1 and PARP are known regulators of apoptosis (Smulson, et al., Roles of poly(ADP-ribosyl)ation and PARP in apoptosis, DNA repair, genomic stability and functions of p53 and E2F-1, Adv. Enzyme Regul., 40:183-215 (2000); Vander Heiden, et al., Bcl-2 proteins: regulators of apoptosis or of mitochondrial homeostasis?, Nat. Cell Biol., 1:E209-E216, (1999)), we used an apoptosis detection ELISA that detects histone-associated DNA fragments to measure apoptotic cell death in the different cell lines treated with BQ788.

SK-MEL-28 = test: as above; details: BQ788 5 days
Procedure: as §4, §5

primary melanoma cells = test: as above; details: BQ788 5 days
Procedure: as §4, §5

Cut-met line = test: as above; details: BQ788 5 days
Procedure: as §4, §5

SMILES: CCCC[C@@H](NC(=O)[C@@H](Cc1cn(C(=O)OC)c2ccccc12)NC(=O)[C@H](CC(C)(C)C)NC(=O)N1[C@H](C)CCC[C@@H]1C)C(=O)O [BQ788, N-cis-2,6-dimethylpiperidinocarbonyl-L-γ-methylleucyl-D-1-methoxycarbonyltrptophanyl-D-norleucine]
- reduction of viability [1]: 45%
- reduction of viability [2]: 96%
- apoptosis level (LN-met): intermediate level
- apoptosis level (SK-MEL-28): highest induction
- apoptosis level (primary melanoma cells): did not display apoptosis
- apoptosis level (Cut-met line): slight increase
